Measured values taken from PubChem BioAssay AID1324 (NMMLSC, 2008).
Active and inactive are the calls of the source. No rule for the calls is given here.

Target: glutathione S-transferase (GST-GSH binding)
Assay: GST–glutathione interaction disruption – biochemical, multiplex beads, flow cytometry, HPSMTB buffer, profiling panel (AID 1324);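 also: glutathione beads loaded with GST-green fluorescent protein and no fluorescent Bim peptide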
Conditions: multiplex bead flow cytometry, MCF

| Compound | EC50 |
| --- | --- |
| CN(/N=C/C=C/c1ccccc1)C1=NS(=O)(=O)c2ccccc21 | 2520 nM |
| COc1ccccc1Nc1nc(-c2c(C)nc3ncccn23)cs1 | inactive |

Same assay, conditions: multiplex bead flow cytometry, MCF, active compounds read high, concentration not given here

| Compound | percent span inhibition |
| --- | --- |
| Cc1c(NC2=C(Cl)C(=O)N(c3ccccc3)C2=O)c(=O)n(-c2ccccc2)n1C | inactive |
| O=c1[nH]c2ccc(N=Cc3c(O)ccc4cc(Br)ccc34)cc2[nH]1 | inactive |
| CC(C)CN1C(=O)/C(=C/c2ccco2)NC1=S | inactive |
| Cc1[nH]n(C(N)=S)c(=O)c1N=Nc1ccc(S(=O)(=O)N2CCCCCC2)cc1 | inactive |
| Cc1ccc(N=c2ssnc2Cl)cc1 | inactive |
| COc1cc(NC(=O)c2ccc3c(c2)OCO3)ccc1NC(=O)c1ccco1 | inactive |
| CCCC1(C(=O)OCC)NC(c2cc(OC)c(OC)c(OC)c2)C2C(=O)N(CC)C(=O)C21 (stereo not given) | inactive |
| O=C(N/N=C/c1ccc(O)c(O)c1O)/C(=C/c1ccc([N+](=O)[O-])cc1)NC(=O)c1ccccc1 | inactive |
| Cc1ccc(-c2ccc(/C=C3\SC(N4CCOCC4)=NC3=O)o2)cc1 | inactive |
| Clc1nssc1=Nc1ccccc1 | inactive |
| COc1cc(N=c2ssnc2Cl)cc(OC)c1OC | inactive |
| O=C(c1ccccc1)c1ccc2nc(-c3ccco3)c(-c3ccco3)nc2c1 | inactive |
| COc1cc(/C=C2\CC/C(=C\c3cc(OC)c(O)c(OC)c3)C2=O)cc(OC)c1O | inactive |
| COc1cc(/C=N/NC(=O)c2ccc([N+](=O)[O-])cc2Cl)cc(Br)c1O | inactive |
| COc1cccc2c1C(=O)C=C(C)C2=O | inactive |
| O=C(NCc1ccccn1)c1ccc2nc(-c3ccco3)c(-c3ccco3)nc2c1 | inactive |
| COC(=O)c1ccc(-n2nnnc2SCC(=O)Nc2cc(OC)ccc2OC)cc1 | inactive |
| CCCn1c(SCC(=O)Nc2ccccc2-c2ccccc2)nnc1-c1ccoc1C | inactive |
| CCc1nnc(NC(=O)CSc2nnc(COc3ccc(C)cc3)n2-c2ccccc2)s1 | inactive |
| COc1ccc(C(=S)N2CCCCCC2)cc1 | inactive |
| Cc1ccc(NC2=C(NC(=O)c3ccccc3)C(=O)c3ccccc3C2=O)cc1Cl | inactive |
| CCN(CC)CCN(C(=O)c1ccc(N2C(=O)CCC2=O)cc1)c1nc2cc3c(cc2s1)OCCO3 | inactive |
| COc1ccccc1N(C)S(=O)(=O)c1ccc(C(=O)OCC(N)=O)cc1 | inactive |

| Compound | percent span inhibition |
| --- | --- |
| CC(NCc1ccc(-c2ccccc2)cc1)C(O)c1ccccc1 (stereo not given) | inactive |
| O=C(NNC(=O)C12CC3CC(CC(C3)C1)C2)c1ccco1 | inactive |
| COc1ccc2nc(NC(=O)c3ccc(-c4cccc([N+](=O)[O-])c4)o3)sc2c1 | inactive |
| Cc1ccc(OCc2cn3cccnc3n2)cc1 | inactive |
| CCOc1cc(/C=N/NC(N)=O)ccc1OCC(=O)Nc1ccc(C)c(C)c1 | inactive |
| CN(C)S(=O)(=O)N(CC(=O)Nc1ccccc1C(F)(F)F)c1ccccc1 | inactive |
| CCN(CC)c1nc(N)nc(N(c2ccccc2)c2ccccc2)n1 | inactive |
| CN1N=C(C(=O)N2CCCC(C(=O)c3cccc(C(F)(F)F)c3)C2)CCC1=O (stereo not given) | inactive |
| Cc1ccc(-c2cc(C(=O)Nc3cccnc3)c3ccccc3n2)o1 | inactive |
| CCOc1cc(CNc2ccc(N(C)C)cc2)cc(Br)c1OCC(=O)NC(C)(C)C | inactive |
| Cc1nnc(Sc2cc(NCCO)c([N+](=O)[O-])c3nonc23)s1 | inactive |
| Cn1c(=O)c2cc(S(=O)(=O)Nc3cc(C(=O)O)cc(C(=O)O)c3)ccc2n(C)c1=O | inactive |
| CNc1ccccc(C(=O)/C=C/c2ccccc2OC)c1=O | inactive |
| Cc1nn(-c2ccc(Cl)c(Cl)c2)c(C)c1C(=O)O | inactive |
| COc1cccc(NC(=O)CSc2nncn2N)c1 | inactive |
| CNC(=O)CC1C(=O)N(Cc2ccccc2)C(=S)N1NC(=O)c1cccc(F)c1 (stereo not given) | inactive |
| Cn1cc(CN2C[C@]3(C)C[C@H]2CC(C)(C)C3)c(-c2ccc3c(c2)OCCO3)n1 | inactive |
| CC(C)=C1C(=O)NN(c2ccc(C)c(Cl)c2)C1=O | inactive |
| CCOc1ccccc1-n1c(=O)c2ccccc2c2ccccc2c1=O | inactive |
| CCOc1cc(/C=C2/N=C(C)C(C(=O)OC)=C2O)ccc1O | inactive |
| COc1ccc(C(=O)Nc2ccc(C(=O)OCC(=O)c3cccc4ccccc34)cc2)cc1 | inactive |
| CC1=NN(c2ccc(C)cc2)C(=O)/C1=C\c1ccc(Br)s1 | inactive |
| CC(C)c1ccc(/C=N/NC(=O)c2ccccc2Cl)cc1 | inactive |

| Compound | percent span inhibition |
| --- | --- |
| O=C1Nc2ccc([N+](=O)[O-])cc2OC1CCN1CCN(Cc2ccc3c(c2)OCO3)CC1 (stereo not given) | inactive |
| CCn1c(SCC(=O)Nc2ccccc2-c2ccccc2)nnc1-c1ccoc1C | inactive |
| CCOCCOc1nc2c(c(=O)n(C)c(=O)n2C)n1CCc1ccccc1 | inactive |
| CN=c1scc(-c2cccs2)n1/N=C/c1ccc(O)c(O)c1O | inactive |
| CC(C)(C)c1nc(NCCN2CCOCC2)c2nnn(Cc3ccccc3Cl)c2n1 | inactive |
| Cc1nn(-c2ccc(Cl)cc2)c(Cl)c1/C=C(\C#N)C(N)=O | inactive |
| CCOC(=O)c1nc(Nc2ccc(C(=O)OC)cc2)c2ccccc2n1 | inactive |
| CCOC(=O)c1c(NC(=O)c2ccccc2N(C)S(=O)(=O)c2ccccc2)sc2c1CCCC2 | inactive |
| CCOC(=O)c1cc2c(=O)n3cccc(C)c3nc2n(Cc2ccco2)c1=NC(=O)c1ccccc1 | inactive |
| Cc1ccc(/C=N/N(C)C2=NS(=O)(=O)c3ccccc32)o1 | inactive |
| CCOc1cc(NC(=S)NC)c(OCC)cc1NC(=O)c1ccc(OC)cc1 | inactive |
| COc1ccc(CC(=O)Nc2ccc(C(=O)Nc3nccs3)cc2)cc1OC | inactive |
| Fc1ccc(C2=Nc3cccc4cccc(c34)N2)cc1 | inactive |
| COc1ccc(NC(=O)c2ccco2)cc1NC(=O)c1ccco1 | inactive |
| CCCc1nnc2n1N=C(c1ccc(-c3cc(Cl)ccc3Cl)o1)CS2 | inactive |
| CN1/C(=C\C(=O)Nc2ccc(Cl)cc2)C(C)(C)c2ccccc21 | inactive |
| OCCC1CN(Cc2nc3c(s2)CCCC3)CCN1Cc1ccsc1 (stereo not given) | inactive |
| COc1cccc(-n2nnnc2SCC(=O)Nc2cccc(NC(C)=O)c2)c1 | inactive |
| CCN(CC)c1ccc(NC(=O)c2ccccc2)cc1S(=O)(=O)Nc1ccccc1OC | inactive |
| CCN1/C(=C/C(C)=C/c2sc3ccccc3[n+]2CC)Sc2ccccc21 | inactive |
| COc1cccc(/C=C2/SC(=O)N(C)C2=O)c1OCc1ccc(C(=O)O)cc1 | inactive |
| Cc1cccc(OCC(=O)NCC(=O)N/N=C/c2cc(Br)ccc2OCc2ccccc2)c1 | inactive |
